# From the supplement of paper PMC10307832
# Tests used:
# Assay in all cases: relative viability (nuclei count vs DMSO), 5 days (fraction); higher = more cells survive
# NCI-H520 = system: NCI-H520
# How it was run: (§1)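 Nuclei were stained with Hoechst during a one-step fixation (final 0.05% Triton X-100, 1% formaldehyde, 1 ug/ml Hoechst) carried out 5 days after dosing, then counted on 4× images. The cells, lung cancer lines in 1536-well plates, had been dosed by pin tool the day after seeding with one drug alone or a fixed anchor-drug dose plus five library-drug doses (not always all listed) in √10 steps. Relative viability is the nuclei count in treated wells divided by that in vehicle wells, and each value is the median of duplicate plates.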
# ChaGo-K-1 = system: ChaGo-K-1
# How it was run: as §1
# NCI-H23 = system: NCI-H23
# How it was run: as §1
# NCI-H1563 = system: NCI-H1563
# How it was run: as §1
# EKVX = system: EKVX
# How it was run: as §1
# COR-L 105 = system: COR-L 105
# How it was run: as §1
# NCI-H441 = system: NCI-H441
# How it was run: as §1
# NCI-H1666 = system: NCI-H1666
# How it was run: as §1
# PC-3 [JPC-3] = system: PC-3 [JPC-3]
# How it was run: as §1
# NCI-H1734 = system: NCI-H1734
# How it was run: as §1
# A-427 = system: A-427
# How it was run: as §1
structure (smiles),measurement,setting,value
CC(=O)O[C@@]12CO[C@@H]1C[C@H](O)[C@@]1(C)C(=O)[C@H](O)C3=C(C)[C@@H](OC(=O)[C@H](O)[C@@H](NC(=O)OC(C)(C)C)c4ccccc4)C[C@@](O)([C@@H](OC(=O)c4ccccc4)[C@H]21)C3(C)C [Docetaxel] + COc1cccc2cc(-c3nc([C@H]4CC[C@H](C(=O)O)CC4)n4ncnc(N)c34)[nH]c12 [OSI-027] (partner 0.5 µM),relative viability,NCI-H520; first compound 0.0002 µM,0.209
same,relative viability,NCI-H520; first compound 0.000632 µM,0.259
same,relative viability,NCI-H520; first compound 0.002 µM,0.276
same,relative viability,NCI-H520; first compound 0.006325 µM,0.257
same,relative viability,NCI-H520; first compound 0.02 µM,0.153
same,relative viability,ChaGo-K-1; first compound 0.0002 µM,0.554
same,relative viability,ChaGo-K-1; first compound 0.000632 µM,0.459
same,relative viability,ChaGo-K-1; first compound 0.002 µM,0.301
same,relative viability,ChaGo-K-1; first compound 0.006325 µM,0.23
same,relative viability,ChaGo-K-1; first compound 0.02 µM,0.129
same,relative viability,NCI-H23; first compound 0.0002 µM,0.804
same,relative viability,NCI-H23; first compound 0.000632 µM,0.587
same,relative viability,NCI-H23; first compound 0.002 µM,0.238
same,relative viability,NCI-H23; first compound 0.006325 µM,0.168
same,relative viability,NCI-H23; first compound 0.02 µM,0.107
same,relative viability,NCI-H1563; first compound 0.0002 µM,0.715
same,relative viability,NCI-H1563; first compound 0.000632 µM,0.79
same,relative viability,NCI-H1563; first compound 0.002 µM,0.738
same,relative viability,NCI-H1563; first compound 0.006325 µM,0.699
same,relative viability,NCI-H1563; first compound 0.02 µM,0.541
same,relative viability,EKVX; first compound 0.0002 µM,0.672
same,relative viability,EKVX; first compound 0.000632 µM,0.607
same,relative viability,EKVX; first compound 0.002 µM,0.35
same,relative viability,EKVX; first compound 0.006325 µM,0.272
same,relative viability,EKVX; first compound 0.02 µM,0.128
same,relative viability,COR-L 105; first compound 0.0002 µM,0.569
same,relative viability,COR-L 105; first compound 0.000632 µM,0.654
same,relative viability,COR-L 105; first compound 0.002 µM,0.408
same,relative viability,COR-L 105; first compound 0.006325 µM,0.277
same,relative viability,COR-L 105; first compound 0.02 µM,0.289
same,relative viability,NCI-H441; first compound 0.0002 µM,0.654
same,relative viability,NCI-H441; first compound 0.000632 µM,0.364
same,relative viability,NCI-H441; first compound 0.002 µM,0.33
same,relative viability,NCI-H441; first compound 0.006325 µM,0.288
same,relative viability,NCI-H441; first compound 0.02 µM,0.235
same,relative viability,NCI-H1666; first compound 0.0002 µM,0.739
same,relative viability,NCI-H1666; first compound 0.000632 µM,0.641
same,relative viability,NCI-H1666; first compound 0.002 µM,0.574
same,relative viability,NCI-H1666; first compound 0.006325 µM,0.491
same,relative viability,NCI-H1666; first compound 0.02 µM,0.322
same,relative viability,PC-3 [JPC-3]; first compound 0.0002 µM,0.703
same,relative viability,PC-3 [JPC-3]; first compound 0.000632 µM,0.79
same,relative viability,PC-3 [JPC-3]; first compound 0.002 µM,0.441
same,relative viability,PC-3 [JPC-3]; first compound 0.02 µM,0.15
same,relative viability,NCI-H1734; first compound 0.0002 µM,0.573
same,relative viability,NCI-H1734; first compound 0.000632 µM,0.482
same,relative viability,NCI-H1734; first compound 0.002 µM,0.307
same,relative viability,NCI-H1734; first compound 0.006325 µM,0.35
same,relative viability,NCI-H1734; first compound 0.02 µM,0.242
same,relative viability,A-427; first compound 0.0002 µM,0.465
same,relative viability,A-427; first compound 0.000632 µM,0.435
same,relative viability,A-427; first compound 0.002 µM,0.224
same,relative viability,A-427; first compound 0.006325 µM,0.235
same,relative viability,A-427; first compound 0.02 µM,0.155
